Earlier results as cited in US20100254946A1, “MAINTENANCE OF HAIR GROWTH AND TREATMENT OF HAIR-LOSS” (LIFE & BRAIN GMBH, priority 2007, published 2010).
“Also recorded” adds a separate entry of the source.

Key:
P2Y5 receptor = target: T1, P2Y5 receptor (Homo sapiens, UniProt P43657)
T1 sequence (P43657 1-344): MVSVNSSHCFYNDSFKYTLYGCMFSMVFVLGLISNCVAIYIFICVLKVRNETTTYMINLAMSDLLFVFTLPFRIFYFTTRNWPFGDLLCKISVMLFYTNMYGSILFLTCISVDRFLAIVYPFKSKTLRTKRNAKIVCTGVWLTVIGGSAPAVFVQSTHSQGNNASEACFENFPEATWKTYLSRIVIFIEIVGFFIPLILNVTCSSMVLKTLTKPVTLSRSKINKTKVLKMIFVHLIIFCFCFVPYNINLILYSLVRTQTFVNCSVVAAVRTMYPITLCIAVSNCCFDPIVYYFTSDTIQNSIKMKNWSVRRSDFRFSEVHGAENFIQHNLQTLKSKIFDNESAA

[1] = target: T2, P2Y5 mutant p.Lys125AsnfsX37 (Homo sapiens, UniProt P43657); conditions: P2Y5 mutant p.Lys125AsnfsX37, LPA used as ligand
T2 construct: premature termination of translation of the P2Y5 receptor protein (p.Lys125AsnfsX37; expressed in transfected cells; vector pcDNA5/FRT/V5-His), transiently transfected with pCRE-luc
T2 sequence (P43657 with tags, fused parts or gaps): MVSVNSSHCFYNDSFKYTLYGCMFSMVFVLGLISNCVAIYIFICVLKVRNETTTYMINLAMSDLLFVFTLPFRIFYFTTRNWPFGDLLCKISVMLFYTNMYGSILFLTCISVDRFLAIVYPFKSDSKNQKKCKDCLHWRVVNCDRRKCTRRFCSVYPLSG

hair growth = conditions: mouse model, previously shown

## CCCCCCCC/C=C\CCCCCCCC(=O)OC[C@@H](O)COP(=O)(O)O [LPA, oleoyl-L-alpha-lysophosphatidic acid]
P2Y5 receptor
  ligand for the P2Y5 receptor: is a ligand of the P2Y5 receptor; also recorded: is a ligand for the P2Y5 receptor
[1]
  activation of a CRE luciferase reporter gene: not capable of activating a CRE luciferase reporter gene
Hair growth
  stimulation of hair growth: stimulate hair growth in vivo
